pIC50: −log10 of the molar value.
Tests used:
tau [1] = target: T1, tau (Homo sapiens, UniProt P10636); experiment: Intracellular tau aggregation in tau-BiFC cell model (forskolin-induced); format: cell-based; design: fused on or other part: N-terminal and C-terminal non-fluorescent fragments of Venus fused to tau (BiFC reporter handles); details: forskolin 30 μM; for concentration dependence of tau-BiFC fluorescence value: 1-100 μM; for tau aggregation in tau-BiFC cells (Example 5, metabolites comparison): varying concentrations
T1 sequence (P10636 1-441 isoform P10636-8): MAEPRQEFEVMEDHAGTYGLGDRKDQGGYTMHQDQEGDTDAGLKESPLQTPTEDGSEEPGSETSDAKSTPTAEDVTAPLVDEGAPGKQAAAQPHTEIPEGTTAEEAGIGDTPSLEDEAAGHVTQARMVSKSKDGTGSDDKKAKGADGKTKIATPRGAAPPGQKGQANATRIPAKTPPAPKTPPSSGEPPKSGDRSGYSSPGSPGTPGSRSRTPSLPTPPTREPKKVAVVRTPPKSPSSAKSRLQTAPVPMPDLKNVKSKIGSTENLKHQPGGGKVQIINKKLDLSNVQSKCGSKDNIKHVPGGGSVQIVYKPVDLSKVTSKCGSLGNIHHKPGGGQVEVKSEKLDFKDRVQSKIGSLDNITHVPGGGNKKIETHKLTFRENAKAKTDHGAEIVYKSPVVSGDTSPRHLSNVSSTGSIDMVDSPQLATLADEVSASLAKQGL
Description: Furthermore, the following examples were performed based on tau-BiFC cell model. The tau-BiFC cell model is a reliable system for monitoring the interaction between tau oligomers, and is a Venus protein-based BiFC method in which the N-terminal and C-terminal non-fluorescent fragments of Venus protein are fused to tau. A further detailed definition and method for the tau-BiFC cell model are as described in Korean Patent No. 10-1546485.
(§1) To screen a new tau aggregation inhibitor, tau-BiFC cell model making it possible to easily observe tau oligomer formation in living cells was treated an FDA-approved drug library (a total of 1018 compounds). As shown in a schematic view of FIG. 1, tau-BiFC cells were plated on a 384-well plate. On the next day, the tau-BiFC cells were treated with FDA-approved drugs (treatment concentration: 10 μM) together with the compound forskolin (treatment concentration: 30 μM) that activates tau kinase PKA to induce tau aggregation. After 46 hours, the tau aggregation inhibitory activities of the drugs were analyzed, and cell viability by the compounds was analyzed by cell nucleus staining with Hoechst. […] To further confirm the tau aggregation inhibitory activity of the selected levosimendan, tau-BiFC cells were treated with DMSO, MB or levosimendan (treatment concentration: 10 μM) together with the compound forskolin (treatment concentration: 30 μM) that activates tau kinase PKA to induce tau aggregation. At this time, methylene blue (MB) known to show tau aggregation inhibitory activity was used as a comparative compound (positive control). After 48 hours, the tau aggregation inhibitory activity of the compound was analyzed, and cell viability by the compound was analyzed by cell nucleus staining with Hoechst.
(§2) In addition, in order to further confirm the tau aggregation inhibitory activity of the selected levosimendan compound in living cells, tau-BiFC cells were treated with the tau inducer forskolin (treatment concentration: 30 μM) together with 1, 3, 10, 30 or 100 μM of the levosimendan compound. After 48 hours, tau aggregation reactions in the cells were analyzed by analysis of tau-BiFC response, and cell viability was analyzed to determine the toxicity of the compound.
The levosimendan compound has two metabolite forms ([…] and activated (OR-1896)). […] Specifically, tau-BiFC cells were treated with varying concentrations of each of MB, levosimendan, OR-1855 and OR-1896 compounds together with the tau aggregation inducer forskolin (treatment concentration: 30 μM). After 48 hours, the extent of tau aggregation in the cells was analyzed.

tau [2] = target: T1, tau; experiment: Tau phosphorylation by Western blot of tau-BiFC cell lysates; format: cell-based; design: fused on or other part: N-terminal and C-terminal non-fluorescent fragments of Venus fused to tau (BiFC reporter handles); details: forskolin 30 μM, 36 hours
Description: In order to confirm whether the levosimendan compound would show tau aggregation inhibitory activity by inhibiting tau phosphorylation, Tau-BiFC cells were treated with the tau aggregation inducer forskolin (treatment concentration: 30 μM) and the levosimendan compound (treatment concentration: 15 μM). After 36 hours, the tau-BiFC cell lysates were analyzed by Western blot analysis to measure tau phosphorylation.

tau-BiFC cells = experiment: Cell viability by cell nucleus staining with Hoechst; format: cell-based; details: forskolin 30 μM; for cytotoxicity / cell viability (number of nuclei stained with Hoechst): 10 μM compound, 48 hours
Description: as §1
Furthermore, it could be seen that the fluorescence value of the test group (levosimendan) decreased, similar to that of the positive control group (MB).
as §2

tau aggregates = tau aggregates (Homo sapiens, UniProt P10636); experiment: In vitro dissociation of tau aggregates; format: biochemical; details: Tau-Agg+100 uM DTT+0.1 mg/mL Heparin, 37° C., varying concentrations
Chain of tau aggregates (P10636 1-441 isoform P10636-8): as above
Description: (§3) Thus, whether the levosimendan compound would be involved in the tau aggregation process to inhibit tau aggregation was examined. Specifically, whether the levosimendan compound would inhibit the tau aggregation process was analyzed in vitro, and whether the levosimendan compound would prevent additional aggregation of aggregated tau and dissociate the aggregation was analyzed in vitro. The tau aggregation process (Tau pre-Agg+100 uM DTT+0.1 mg/mL Heparin, incubated at 37° C.) in vitro was treated with varying concentrations of the levosimendan compound, and the degree of tau aggregation was analyzed with ThS (Thioflavin S). The ThS is a dye capable of measuring tau aggregation in vitro in real time, and is used as a fluorescence probe that detects β-sheet aggregation.

tau [3] = target: T1, tau; experiment: In vitro tau aggregation with ThS (Thioflavin S); format: biochemical; details: Tau pre-Agg+100 uM DTT+0.1 mg/mL Heparin, 37° C.
Description: as §3

tau kinase = experiment: Tau kinase activity
[4] = system: mouse cerebral cortical neuronal cells; experiment: Neuronal cell protection against TauK18P301L damage; format: cell-based; details: 10 μM, 2 hours before TauK18P301L 20 μg/mL; E18, DIV8
Text: Whether the levosimendan compound would protect neuronal cells from neuronal cell damage was examined.

[5] = 15 μM, vs forskolin-treated cells

CN(C)c1ccc2nc3ccc(=[N+](C)C)cc-3sc2c1 [MB, methylene blue]
concentration dependence of tau-BiFC fluorescence value (tau [1]; 48 hours): concentration-dependent decrease in the fluorescence value | tau phosphorylation compared to forskolin-treated cells (tau [2]): decreased compared to that in the forskolin-treated cells | cytotoxicity / cell viability (number of nuclei stained with Hoechst) (tau-BiFC cells): decreased | cytotoxicity / cell viability (number of nuclei stained with Hoechst) (tau-BiFC cells; listed as methylene blue): cytotoxicity higher than that of the levosimendan compound

C[C@@H]1CC(=O)NN=C1c1ccc(N)cc1 [OR-1855]
tau aggregation in tau-BiFC cells (Example 5, metabolites comparison) (tau [1]; 48 hours): did not show tau aggregation inhibitory activity

CC(=O)Nc1ccc(C2=NNC(=O)C[C@H]2C)cc1 [OR-1896]
tau aggregation in tau-BiFC cells (Example 5, metabolites comparison) (tau [1]; 48 hours): did not show tau aggregation inhibitory activity

C[C@@H]1CC(=O)NN=C1c1ccc(NN=C(C#N)C#N)cc1 [levosimendan]
tau-BiFC fluorescence value (RFU), tau aggregation inhibitory activity (tau [1]; 10 μM compound, 48 hours): decreased compared to that of the negative control group (DMSO) | tau aggregation inhibitory activity in drug library screening (tau [1]; 10 μM, 46 hours, 384-well plate): tau aggregation inhibitory activity equal to that of methylene blue (MB) | concentration dependence of tau-BiFC fluorescence value (tau [1]; 48 hours): concentration-dependent decrease in the fluorescence value | pIC50 (tau [1]; 1, 3, 10, 30 or 100 μM compound, 48 hours, read-out: IC50 of decrease in tau-BiFC fluorescence value): 5.66 | tau aggregation in tau-BiFC cells (Example 5, metabolites comparison) (tau [1]; 48 hours): decreased similar to that in the positive control group (MB) | effect on tau aggregates in vitro (tau aggregates): had the effect of dissociating tau aggregates | pIC50 (tau [3]): 5.33 | tau phosphorylation decrease at Ser199 (tau [2]; [5]): about 34% | tau phosphorylation decrease at Ser396 (tau [2]; [5]): about 35% | tau phosphorylation compared to forskolin-treated cells (tau [2]): decreased compared to that in the forskolin-treated cells | cell viability in drug library screening (tau-BiFC cells; 10 μM, 46 hours): cell viability equal to that of drug-untreated normal cells | changes in tau kinase activity (tau kinase): did not affect changes in tau kinase activity | damage to neuronal cells, neuronal cell morphology and neurite length [4]: decreased compared to that in the negative control group (DMSO) and the positive control group (MB)
